Measured values taken from EP3545756A1, “REGENERATION OF PLANTS IN THE PRESENCE OF INHIBITORS OF THE HISTONE METHYLTRANSFERASE EZH2” (KWS SAAT SE & Co. KGaA, priority 2018, dated 2019).
Structures can show the parent of a compound that is named as a salt.

Experiments:
sugar beet callus [1] = test: Shoot formation from sugar beet callus in DZNep-supplemented medium; assay type: cell-based, Beta vulgaris; conditions: 8 days
Text: The applied method is based on the publication by Kischenko et al. (2005. Production of transgenetic sugarbeet (Beta vulgaris L.) plants resistant to phosphinothricin. Cell biology international, 29(1), 15-19.). This method relies on the induction of friable callus derived from cotyledons and hypocotyl explants. Method is genotype dependent.
• 1. Micropropagated shoots of the genotype 9BS0448 were used as starting material. Shoots were multiplied in MS salts supplemented with 30 g/l sucrose and 0.25 mg/l benzyladenine (BAP). • 2. To induce friable callus, leaf explants were isolated from micropropagated shoots and incubated in medium containing MS salts including 15 g/l sucrose and 2 mg/l BAP at 28°C in the dark for 7 weeks.
• 3. Friable calli of step 2 were harvested and placed in medium containing MS salts, 30 g/l sucrose, 1 mg/l GA3 and 1 mg/l TDZ, and transferred to separate dishes as control. Similar amount of friable calli were harvested and placed in the same medium supplemented with 0.4 mg/l DZNep. • 4. The dishes were incubated under the light/dark regime (16 h/8 h) at 24°C for 8 days. • 5. Developing shoots were counted under a stereomicroscope, in order to estimate the regeneration capacity.

Sugar beet plants = test: Plant growth after regeneration from shoots induced with temporary DZNep treatment; assay type: in vivo, Beta vulgaris; conditions: shoots from DZNep plates transferred into normal growth medium without DZNep, compared with shoots from control plates
Text: Beside the increased capability for shoot formation the inventors observed that shoots harvested from the control plates and from the plates supplied with DZNep and subsequently transferred into the container with normal growth medium (without DZNep), developed to plant with different biomass and vitality. […] Thus, the DZNep treatment affects also positively the plant growth after regeneration.

sugar beet callus [2] = test: Shoot formation after particle bombardment of sugar beet callus; assay type: cell-based, Beta vulgaris
Experimental: • 1. Friable calli were produced as described above in steps 1 and 2 of Example 1. • 2. An osmotic treatment was carried out by incubating the harvested calli in a medium containing MS salts, 30 g/l sucrose,1 mg/l GA3,1 mg/l Thidiazuron (TDZ),10 g/l agar, pH 6.0, 36 g/l mannitol and 36 g/l sorbitol for 2.5 h at room temperature in the dark. • 3. Preparation and DNA coating of the gold particles was done by standard procedures, as describe in the PDS-1000/He instruction manual. The plasmid pZFNnptll with the red fluorescent marker, tdT, (see Figure 2) was coprecipitated with gold particles. • 4. Calli were bombarded with a PDS-1000/He unit (Bio-Rad), using 30 ng gold particles coated with 500 ng DNA per shot. The rupture pressure was 450 psi and the target tissue was placed at 9 cm distance from the stopping screen. • 5. After bombardment, aliquots of calli tissue were incubated in medium containing MS salts, 30 g/l sucrose, 1 mg/l GA3 and 1 mg/l TDZ, with and without 0.4 mg/l DZNep, in light/dark (16h/8h), at 24 °C for 10 days on separate plates. As a control for standard regeneration, non-bombarded aliquots of calli were treated in the osmotic medium and directly transferred to above medium without DZNep. Shoot number was scored by using a standard binocular.

## Nc1nccc2c1ncn2[C@@H]1C=C(CO)[C@@H](O)[C@H]1O [DZNep, 3-Deazaneplanocin A hydrochloride]
Sugar beet callus [1]; 0.4 mg/l DZNep in shoot induction medium, genotype 9BS0448, 24°C, light/dark 16 h/8 h, control 13.9
  mean value of shoots per 1 g callus tissue: 27.1 shoots per 1 g callus tissue
Sugar beet callus [1]; 0.4 mg/l DZNep versus control without DZNep
  increase of shoots per 1 g callus tissue compared to control: 95%
Sugar beet plants
  plant biomass and vitality after regeneration: significantly bigger and more vital
Sugar beet callus [2]; bombarded calli with 0.4 mg/l DZNep versus bombarded control with standard medium
  increase of shoots per plate compared to the bombarded control: 207%
Sugar beet callus [2]; bombarded calli with 0.4 mg/l DZNep versus non-bombarded control without DZNep
  increase of shoots per plate compared to the non-bombarded control: 108%
Sugar beet callus [2]; bombarded calli, 0.4 mg/l DZNep in medium, 10 days, 24 °C, non-bombarded control 4, bombarded control 2.7
  mean value of shoots per plate: 8.3 shoots per plate
